Measured values from paper PMC8286840, “Identifying SARS-CoV-2 antiviral compounds by screening for small molecule inhibitors of Nsp3 papain-like protease” (Biochemical Journal, 2021).
Where a name gives a salt, the structure may show the parent alone. Read-outs that look alike come from different tables or passages of the source.

Experiments:
[1] = molecular target: T1, SARS-CoV-2 PLpro (nsp3 1564–1878) (Severe acute respiratory syndrome coronavirus 2, UniProt P0DTD1); test: biochemical; set-up: FRET-quenched peptide (Pro3) cleavage by PLpro, 10 min pre-incubation, slope over 20 min, normalised to no-compound control; settings: low concentration screen, read-out: % of control remaining
[2] = molecular target: T1, SARS-CoV-2 PLpro (nsp3 1564–1878); test: biochemical; set-up: FRET-quenched peptide (Pro3) cleavage by PLpro, 10 min pre-incubation, slope over 20 min, normalised to no-compound control; settings: high concentration screen, read-out: % of control remaining

Q: How did the remaining activity at 1.25 µM ([1]; Well no.=83) turn out when `O=c1[nH]c(=O)n([C@H]2C[C@H](O)[C@@H](CO)O2)cc1/C=C/Br` [(E)-5-(2-Bromovinyl)-2'-deoxyuridine] was run?
A: The remaining activity at 1.25 µM was 94.9%.

Q: What about the remaining activity at 3.75 µM ([2]; Well no.=83) of the same molecule?
A: The remaining activity at 3.75 µM was 94.4%.

Q: With `COc1ccc2cc([C@H](C)C(=O)O)ccc2c1` [Naproxen] as the molecule, how does the remaining activity at 1.25 µM ([1]; Well no.=1869) read?
A: The remaining activity at 1.25 µM was 90.4%.

Q: What about the remaining activity at 3.75 µM ([2]; Well no.=1869) of the same molecule?
A: The remaining activity at 3.75 µM was 87.1%.

Q: Which results are given for `CC(C)CCN1c2nc(Nc3cc(F)c(O)c(F)c3)ncc2N(C)C(=O)C1C` (stereo not drawn) [BI-D1870]?
A: remaining activity at 1.25 µM ([1]; Well no.=2787): 101%; remaining activity at 3.75 µM ([2]; Well no.=2787): 104%

Q: For `O=C1NC(=O)C(c2ccccc2)(c2ccccc2)N1` [5,5-Diphenylhydantoin], which remaining activity at 1.25 µM ([1]; Well no.=641) is on record?
A: The remaining activity at 1.25 µM was 99.8%.

Q: And the remaining activity at 3.75 µM ([2]; Well no.=641)?
A: Its remaining activity at 3.75 µM is 98.3%.

Q: With `NCCS(=O)(=O)O` [Taurine] as the molecule, how does the remaining activity at 1.25 µM ([1]; Well no.=1233) read?
A: The remaining activity at 1.25 µM was 102%.

Q: What about the remaining activity at 1.25 µM ([1]; Well no.=6299) of the same molecule?
A: Its remaining activity at 1.25 µM is 98.3%.

Q: What about the remaining activity at 3.75 µM ([2]; Well no.=1233) of the same molecule?
A: Its remaining activity at 3.75 µM is 104%.

Q: What about the remaining activity at 3.75 µM ([2]; Well no.=6299) of the same molecule?
A: The remaining activity at 3.75 µM was 96.7%.

Q: What does the source list for `CN1CC[C@@H](NC(=O)Nc2ccc(C#N)cc2)C[C@@H]1c1nc2ccccc2[nH]1` [PF-04449913 maleate salt]?
A: remaining activity at 1.25 µM ([1]; Well no.=5703): 104%; remaining activity at 3.75 µM ([2]; Well no.=5703): 99.8%

Q: What does the source list for `COc1ccc(C(C)=O)c(O)c1` [Paeonol]?
A: remaining activity at 1.25 µM ([1]; Well no.=4045): 100%; remaining activity at 1.25 µM ([1]; Well no.=8194): 105%; remaining activity at 3.75 µM ([2]; Well no.=4045): 101%; remaining activity at 3.75 µM ([2]; Well no.=8194): 102%

Q: For `CCOC(=O)Oc1c(OC)cc(C(=O)O[C@@H]2C[C@@H]3CN4CCc5c([nH]c6cc(OC)ccc56)[C@H]4C[C@@H]3[C@H](C(=O)OC)[C@H]2OC)cc1OC` [Syrosingopine], which remaining activity at 1.25 µM ([1]; Well no.=3310) is on record?
A: Its remaining activity at 1.25 µM is 100%.

Q: What about the remaining activity at 3.75 µM ([2]; Well no.=3310) of the same molecule?
A: The remaining activity at 3.75 µM was 98.6%.

Q: Which results are given for `CN[C@H](CC(=O)O)C(=O)O` [N-Methyl-D-aspartic acid]?
A: remaining activity at 1.25 µM ([1]; Well no.=1020): 103%; remaining activity at 3.75 µM ([2]; Well no.=1020): 105%

Q: Which results are given for `N#C[C@H](O[C@@H]1O[C@H](CO[C@@H]2O[C@H](CO)[C@@H](O)[C@H](O)[C@H]2O)[C@@H](O)[C@H](O)[C@H]1O)c1ccccc1` [Amygdalin]?
A: remaining activity at 1.25 µM ([1]; Well no.=3472): 100%; remaining activity at 3.75 µM ([2]; Well no.=3472): 102%

Q: `CSc1ccc(C(=O)/C=C/c2cc(C)c(OC(C)(C)C(=O)O)c(C)c2)cc1` [Elafibranor] was tested. Which remaining activity at 1.25 µM ([1]; Well no.=8106) did it give?
A: The remaining activity at 1.25 µM was 96.6%.

Q: What about the remaining activity at 3.75 µM ([2]; Well no.=8106) of the same molecule?
A: Its remaining activity at 3.75 µM is 95.3%.

Q: Which remaining activity at 1.25 µM ([1]; Well no.=5979) does the source give for `COc1cc2oc(-c3ccc(O)c(O)c3)cc(=O)c2c(O)c1OC` [2-(3,4-dihydroxyphenyl)-5-hydroxy-6,7-dimethoxy-4H-chromen-4-one] here?
A: The remaining activity at 1.25 µM was 97%.

Q: And the remaining activity at 3.75 µM ([2]; Well no.=5979)?
A: Its remaining activity at 3.75 µM is 93.4%.

Q: Which results are given for `CC(C)(C)c1ccc(S(=O)(=O)/C=C/C#N)cc1` [Bay 11-7085]?
A: remaining activity at 1.25 µM ([1]; Well no.=127): 105%; remaining activity at 3.75 µM ([2]; Well no.=127): 105%

Q: For `O=C(c1ccccc1)c1ccc2n1CCC2C(=O)O` (stereo not drawn) [Ketorolac tris salt], which remaining activity at 1.25 µM ([1]; Well no.=925) is on record?
A: The remaining activity at 1.25 µM was 108%.

Q: And the remaining activity at 3.75 µM ([2]; Well no.=925)?
A: The remaining activity at 3.75 µM was 103%.

Q: What does the source list for `O=c1[nH]c2ccccc2c2ccccc12` [6(5H)-Phenanthridinone]?
A: remaining activity at 1.25 µM ([1]; Well no.=1305): 104%; remaining activity at 3.75 µM ([2]; Well no.=1305): 107%

Q: Which remaining activity at 1.25 µM ([1]; Well no.=6346) does the source give for `NC(=O)c1ccc(-c2cc(-c3ccc([N+](=O)[O-])cc3)nc(-c3ccco3)c2)cc1` [KJ Pyr 9] here?
A: Its remaining activity at 1.25 µM is 99.3%.

Q: What about the remaining activity at 3.75 µM ([2]; Well no.=6346) of the same molecule?
A: The remaining activity at 3.75 µM was 101%.

Q: Which results are given for `Nc1c(O)cccc1C(=O)O` [3-Hydroxyanthranilic acid]?
A: remaining activity at 1.25 µM ([1]; Well no.=6535): 102%; remaining activity at 3.75 µM ([2]; Well no.=6535): 91.9%

Q: Which remaining activity at 1.25 µM ([1]; Well no.=7809) does the source give for `COc1ccc(OC)c(C2C(C#N)=C(N)Oc3n[nH]c(-c4ccc5ccccc5c4)c32)c1` (stereo not drawn) [RBC8] here?
A: The remaining activity at 1.25 µM was 105%.

Q: And the remaining activity at 3.75 µM ([2]; Well no.=7809)?
A: The remaining activity at 3.75 µM was 113%.

Q: Which results are given for `CC/C=C\C/C=C\C/C=C\CCCCCCCC(=O)O` [Linolenic acid]?
A: remaining activity at 1.25 µM ([1]; Well no.=4305): 103%; remaining activity at 1.25 µM ([1]; Well no.=4358): 101%; remaining activity at 3.75 µM ([2]; Well no.=4305): 102%; remaining activity at 3.75 µM ([2]; Well no.=4358): 100%

Q: For `N[C@@H](Cn1ccc(=O)c(O)c1)C(=O)O` [L-Mimosine], which remaining activity at 1.25 µM ([1]; Well no.=3819) is on record?
A: Its remaining activity at 1.25 µM is 92.9%.

Q: And the remaining activity at 3.75 µM ([2]; Well no.=3819)?
A: Its remaining activity at 3.75 µM is 94.6%.

Q: With `CNCCc1ccc(O)c(O)c1` [N-Methyldopamine hydrochloride] as the molecule, how does the remaining activity at 1.25 µM ([1]; Well no.=693) read?
A: Its remaining activity at 1.25 µM is 90.9%.

Q: What about the remaining activity at 3.75 µM ([2]; Well no.=693) of the same molecule?
A: Its remaining activity at 3.75 µM is 91.2%.

Q: Which remaining activity at 1.25 µM ([1]; Well no.=4759) does the source give for `CNC(=O)c1ccc(N2C(=S)N(c3ccc(C#N)c(C(F)(F)F)c3)C(=O)C2(C)C)cc1F` [MDV3100 (Enzalutamide)] here?
A: The remaining activity at 1.25 µM was 102%.

Q: And the remaining activity at 3.75 µM ([2]; Well no.=4759)?
A: The remaining activity at 3.75 µM was 104%.

Q: For `CCCCC(=O)O[C@]1(C(=O)CO)[C@@H](C)C[C@H]2[C@@H]3CCC4=CC(=O)C=C[C@]4(C)[C@@]3(F)[C@@H](O)C[C@@]21C` [Betamethasone valerate], which remaining activity at 1.25 µM ([1]; Well no.=5651) is on record?
A: Its remaining activity at 1.25 µM is 94.9%.

Q: What about the remaining activity at 3.75 µM ([2]; Well no.=5651) of the same molecule?
A: The remaining activity at 3.75 µM was 97.2%.

Q: Which results are given for `CN1C[C@@H]2C[C@H]1CN2c1cc2c(cc1F)c(=O)c(C(=O)O)cn2C1CC1` [Danofloxacin Mesylate]?
A: remaining activity at 1.25 µM ([1]; Well no.=5322): 87.6%; remaining activity at 3.75 µM ([2]; Well no.=5322): 86.3%

Q: With `O=C(O)c1ccccc1Nc1ccccc1` [N-Phenylanthranilic acid] as the molecule, how does the remaining activity at 1.25 µM ([1]; Well no.=51) read?
A: Its remaining activity at 1.25 µM is 101%.

Q: And the remaining activity at 3.75 µM ([2]; Well no.=51)?
A: Its remaining activity at 3.75 µM is 95.6%.

Q: For `C=C[C@](C)(O)CC[C@@H]1[C@@]2(C)CCCC(C)(C)[C@@H]2CC[C@@]1(C)O` [Sclareol], which remaining activity at 1.25 µM ([1]; Well no.=3388) is on record?
A: Its remaining activity at 1.25 µM is 91.2%.

Q: What about the remaining activity at 3.75 µM ([2]; Well no.=3388) of the same molecule?
A: Its remaining activity at 3.75 µM is 96.1%.

Q: Which results are given for `CC(C)CC(=O)NCC(=O)O` [N-Isovaleroylglycine]?
A: remaining activity at 1.25 µM ([1]; Well no.=6643): 110%; remaining activity at 3.75 µM ([2]; Well no.=6643): 122%

Q: What does the source list for `N[C@H](C(=O)O)c1cc(O)no1` (racemic)?
A: remaining activity at 1.25 µM ([1]; Well no.=819): 98.4%; remaining activity at 3.75 µM ([2]; Well no.=819): 98.7%

Q: `C[C@@H]1O[C@@H](O[C@@H]2[C@@H](O)[C@H](O)[C@@H](CO)O[C@H]2c2c(O)cc(O)c3c(=O)cc(-c4ccc(O)cc4)oc23)[C@H](O)[C@H](O)[C@H]1O` [Vitexin-2-O-rhamnoside] was tested. Which remaining activity at 1.25 µM ([1]; Well no.=3405) did it give?
A: The remaining activity at 1.25 µM was 91.6%.

Q: What about the remaining activity at 3.75 µM ([2]; Well no.=3405) of the same molecule?
A: Its remaining activity at 3.75 µM is 80.4%.

Q: Which remaining activity at 1.25 µM ([1]; Well no.=811) does the source give for `COC(=O)C1=C(C)NC(C)=C(C(=O)OCCN(C)Cc2ccccc2)C1c1cccc([N+](=O)[O-])c1` (stereo not drawn) [Nicardipine hydrochloride] here?
A: The remaining activity at 1.25 µM was 103%.

Q: What about the remaining activity at 3.75 µM ([2]; Well no.=811) of the same molecule?
A: Its remaining activity at 3.75 µM is 103%.

Q: `CC(C)CCn1c(CN2CCN(C(=O)C3CC3)CC2)nc2c1c(=O)n(C)c(=O)n2C` [NCT-501] was tested. Which remaining activity at 1.25 µM ([1]; Well no.=8532) did it give?
A: Its remaining activity at 1.25 µM is 105%.

Q: What about the remaining activity at 3.75 µM ([2]; Well no.=8532) of the same molecule?
A: Its remaining activity at 3.75 µM is 98.9%.

Q: `Cc1ccc(NC(=O)CCCCCC(=O)Nc2ccccc2N)cc1` [Pimelic Diphenylamide 106 (analog)] was tested. Which remaining activity at 1.25 µM ([1]; Well no.=8230) did it give?
A: The remaining activity at 1.25 µM was 104%.

Q: What about the remaining activity at 3.75 µM ([2]; Well no.=8230) of the same molecule?
A: The remaining activity at 3.75 µM was 102%.

Q: Which results are given for `C=CC[N+]1([C@H]2C[C@H]3[C@@H]4CC[C@H]5C[C@H](O)[C@@H](N6CCOCC6)C[C@]5(C)[C@H]4CC[C@]3(C)[C@H]2OC(C)=O)CCCC1` [Rocuronium bromide]?
A: remaining activity at 1.25 µM ([1]; Well no.=2019): 103%; remaining activity at 3.75 µM ([2]; Well no.=2019): 105%
